Assay results reported in patent US7410986B2, “4-6-diphenyl pyridine derivatives as antiinflammatory agents” (Bayer Aktiengesellschaft, priority 2000, dated 2008).
pIC50: −log10 of the molar value. Structures can show the parent of a compound that is named as a salt.

Tests used:
human IKK-β = biological target: T1, human IKK-β (Homo sapiens, UniProt O14920); experiment: IKK-β kinase inhibitory assay; assay type: biochemical; conditions: compounds of about 40 to 90% purity, read-out: In vitro activity grade (invitro, IC50)
T1 construct: A cDNA fragment encoding human IKK-β open reading frame was generated by PCR; His; made in house; host or cells: Sf21 insect cells (baculovirus); the GST-IκBα substrate was made in E. coli
T1 sequence (O14920 1-756): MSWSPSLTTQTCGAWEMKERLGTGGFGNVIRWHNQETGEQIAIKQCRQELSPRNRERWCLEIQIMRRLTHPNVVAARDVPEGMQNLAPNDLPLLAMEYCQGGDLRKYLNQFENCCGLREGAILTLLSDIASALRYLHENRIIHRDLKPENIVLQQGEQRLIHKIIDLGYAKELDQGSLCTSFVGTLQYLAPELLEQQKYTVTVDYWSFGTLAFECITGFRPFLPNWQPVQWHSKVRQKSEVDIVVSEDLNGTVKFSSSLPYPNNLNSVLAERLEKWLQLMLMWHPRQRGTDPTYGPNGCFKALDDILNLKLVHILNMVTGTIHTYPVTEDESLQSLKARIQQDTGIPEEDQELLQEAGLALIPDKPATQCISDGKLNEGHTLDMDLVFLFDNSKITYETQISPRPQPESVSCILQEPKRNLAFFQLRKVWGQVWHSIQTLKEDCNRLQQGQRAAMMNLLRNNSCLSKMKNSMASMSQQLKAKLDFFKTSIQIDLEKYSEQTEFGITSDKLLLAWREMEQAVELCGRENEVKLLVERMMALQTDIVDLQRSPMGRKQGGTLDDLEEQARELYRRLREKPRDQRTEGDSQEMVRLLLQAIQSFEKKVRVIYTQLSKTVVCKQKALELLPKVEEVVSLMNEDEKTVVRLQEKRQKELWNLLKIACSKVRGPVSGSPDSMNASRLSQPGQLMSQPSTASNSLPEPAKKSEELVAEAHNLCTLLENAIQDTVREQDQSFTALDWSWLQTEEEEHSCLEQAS
Description: IKK-β Kinase Inhibitory Assay.
• (1) Preparation of IKK-β Kinase Protein. • A cDNA fragment encoding human IKK-β open reading frame was generated by PCR with the use of a pair of primers designed from the published sequence (Woronicz J D et al. (1997) Science 278,866-869). A template was obtained from Quickclone cDNA (Clontech) using Elongase™ Amplification kit (Life Technologies). The DNA fragments generated by PCR were gel-purified and subcloned into pBluescript. The cDNA fragment cloned in pBluescript was inserted into pcDNA3.1/His C KpnI/NotI, and transferred into pVL1393 SmaI/XbaI (Pharmingen) to construct a baculovirus transfer vector. Then the vector, together with the linearized baculovirus (BaculoGold™, Pharmingen) was used to transfect Sf21 cells (Invitrogen, San Diego, Calif.). Generated recombinant baculovirus was cloned and amplified in Sf21 cells, grown in TNM-FH insect cell medium (Life Technologies, Inc.) supplemented with 10% FCS, […] Gentamycin, 0.1% Pluronic F-68 (Life Technologies, Inc.) as suspension culture (200 ml in 1 L Erlenmeyer flask; 27° C.; 130 rpm). Sf21 cells were infected with this amplified virus with a multiplicity of infection of 5 following standard protocols (Crossen R, Gruenwald S (1997) Baculovirus Expression Vector System Instruction Manual, Pharmingen Corporation) and harvested 48 hrs. later. The cells were lysed to obtain the produced chimeric protein of IKK-β kinase fused by histidine (His-tagged IKK-beta). • (2) The Preparation of Purified GST-IκBα Fusion Proteins • An expression vector containing the nucleotide sequence encoding fusion protein of GST with amino acid residues 1 to 54 of IκBα under the control of an IPTG-inducible promoter was constructed. The expression vector was introduced in E. coli and the transformant was cultured and lysed to obtain a GST-IκBα fusion protein. Then the resulting GST-IκBα fusion protein was purified and biotinated for kinase assay. • (3) The Measurement of IKK-β Kinase Activity • The 96-well format kinase assay of IKK-β was performed to test the inhibitory activity of the compounds of the present invention. First, 5 μl of a test compound was put in the presence of 2.5% dimethyl sulfoxide (DMSO) in each well in a U-bottomed 96-well plate (Falcon). For control wells of background (BG) and total phosphorylation (TP), 5 μl of 2.5% DMSO was put. Recombinant IKK-β (final 0.6 μg/ml) and bio-GST-IκBα (1-54) (final 0.2 μM) were diluted in 25 μl of 2×kinase buffer β (40 mM Tris-HCl, pH 7.6, 40 mM MgCl2, 40 mM β-glycerophosphate, 40 mM p-nitrophenyl-phosphate, 2 mM EDTA, 40 mM creatine phosphate, 2 mM DTT, 2 mM Na3VO4, 0.2 mg/ml BSA and 0.8 mM phenylmethylsulfonyl fluoride) and transferred to the 96-well plate. Bio-GST-IκBα (1-54) in 25 μl of 2×kinase buffer β without IKK-β was transferred to BG wells. Then 20 μl of 12.5 μM ATP, 62.5 μCi/ml [γ-^33P] ATP (Amersham Pharmacia Biotech) was added and the resulting mixture was incubated for 2 hrs. at room temperature. The kinase reactions were terminated by the addition of 150 μl of termination buffer (100 mM EDTA, 1 mg/ml BSA, 0.2 mg NaN3). One handred and fifty μl of the sample was transferred to a streptavidin-coated, white MTP (Steffens Biotechniche Analysen GmbH #08114E14. FWD) to capture the biotinylated substrates. After 1 hr. of incubation, non-bound radioactivity was eliminated by washing the wells five times with 300 μl of washing buffer including 0.9% NaCl and 0.1% (w/v) Tween-20 with the use of a MW-96 plate washer (BioTec). The bound radioactivity was determined after the addition of 170 μl MicroScint-PS scintillation cocktail (Packard) using a TopCount scintillation counter. Syk Tyrosine Kinase Inhibitory Assay for Selectivity. • (1) Preparation of Syk Protein • A cDNA fragment encoding human Syk openreading frame was cloned from total RNA of human Burkitt's lymphoma B cell lines, Raji (American Type Culture Collection), with the use of RT-PCR method. […]

[1] = tested on: RANTES production in response to TNF-α from A549 cells; experiment: RANTES production in response to TNF-α from A549 cells; assay type: cell-based, human; conditions: Homo sapiens, A549, 24 h, 100 ng/ml TNF-α, compounds of about 40 to 90% purity, read-out: Cellular activity grade (A549, IC50)

pIC50 (human IKK-β) | pIC50 [1] | SMILES
5.70 to 6.30 | < 5.00 | CCOC(=O)C1CCN(CCC(=O)Nc2cccc(-c3cc(-c4ccccc4O)nc(N)c3C#N)c2)CC1 [Example 4-26]
5.70 to 6.30 | 5.00 to 6.00 | N#Cc1c(-c2cccc(NC(=O)CCN3CCCC4CCCCC43)c2)cc(-c2ccccc2O)nc1N (stereo not shown) [Example 4-15]
5.00 to 5.70 | < 5.00 | N#Cc1c(-c2cccc(C(=O)O)c2)cc(-c2ccccc2O)nc1N [Example 5-1, Sodium 3-[2-amino-3-cyano-6-(2-hydroxyphenyl)-4-pyridinyl]benzoate]
> 6.30 | 5.00 to 6.00 | N#Cc1c(-c2ccc(N3CCC(NC(=O)C(F)(F)F)C3)c(NC(=O)CCN3CCCCC3)c2)cc(-c2ccccc2O)nc1N (stereo not shown) [Example 3-17]
5.00 to 5.70 | 5.00 to 6.00 | N#Cc1c(-c2cccc(C(=O)NCCN3CCCCC3)c2)cc(-c2ccccc2O)nc1N [Example 6-1, 3-[2-amino-3-cyano-6-(2-hydroxyphenyl)-4-pyridinyl]-N-[2-(1-piperidinyl)ethyl]benzamide trifluoroacetate]
5.70 to 6.30 | 5.00 to 6.00 | N#Cc1c(-c2ccc(N3CCCC3)c(NC(=O)CCN3CCCCC3)c2)cc(-c2ccccc2O)nc1N [Example 3-1, N-[5-[2-amino-3-cyano-6-(2-hydroxyphenyl)-4-pyridinyl]-2-(1-pyrrolidinyl)phenyl]-3-(1-piperidinyl)propanamide hydrochloride]
5.00 to 5.70 | < 5.00 | N#Cc1c(-c2cccc(NC(=O)C3CCC(=O)O3)c2)cc(-c2ncccc2O)nc1N (stereo not shown) [Example 1-20]
5.70 to 6.30 | 5.00 to 6.00 | N#Cc1c(-c2cccc(NC(=O)CN3CCN(C4CCCCC4)CC3)c2)cc(-c2ccccc2O)nc1N [Example 4-04]
> 6.30 | 5.00 to 6.00 | N#Cc1c(-c2ccccc2C(=O)NCCN2CCCCC2)cc(-c2ccccc2O)nc1N [Example 6-03]
> 6.30 | 5.00 to 6.00 | N#Cc1c(-c2ccc(N)c(O)c2)cc(-c2ccccc2O)nc1N [Example 2-15]
5.70 to 6.30 | 5.00 to 6.00 | N#Cc1c(-c2cc(NC(=O)CCN3CCCCC3)ccc2F)cc(-c2ccccc2O)nc1N [Example 2-14]
5.00 to 5.70 | < 5.00 | NC(=O)c1c(-c2cccc(NC(=O)C(O)CCC(=O)O)c2)cc(-c2ccccc2O)nc1N (stereo not shown) [Example 7-2, Sodium 5-({3-[2-amino-3-(aminocarbonyl)-6-(2-hydroxyphenyl)-4-pyridinyl]-phenyl}amino)-4-hydroxy-5-oxopentanoate]
5.70 to 6.30 | 5.00 to 6.00 | N#Cc1c(-c2ccc(N3CCC[C@H]3CO)c(NC(=O)CCN3CCCCC3)c2)cc(-c2ccccc2O)nc1N [Example 3-12]
5.70 to 6.30 | 5.00 to 6.00 | Nc1nc(-c2ccccc2O)cc(-c2cccc(NC(=O)CCN3CCCCC3)c2)c1CO [Example 7-3, N-{3-[2-amino-3-(hydroxymethyl)-6-(2-hydroxyphenyl)-4-pyridinyl]phenyl}-3-(1-piperidinyl)propanamide]
5.00 to 5.70 | < 5.00 | N#Cc1c(-c2cc(NC(=O)CCN)ccc2F)cc(-c2ccccc2O)nc1N [Example 2-12]
> 6.30 | 5.00 to 6.00 | N#Cc1c(-c2ccc(N3CCC(NC(=O)C(F)(F)F)C3)c(NC(=O)CNCC3CC3)c2)cc(-c2ccccc2O)nc1N (stereo not shown) [Example 4-38]
5.70 to 6.30 | 5.00 to 6.00 | N#Cc1c(-c2ccc(N3CCOCC3)c(NC(=O)CCN)c2)cc(-c2ccccc2O)nc1N [Example 3-06]
> 6.30 | > 6.00 | CC(=O)Nc1ccc(-c2cc(-c3ccccc3O)nc(N)c2CO)cc1O [Example 8-04]
5.70 to 6.30 | 5.00 to 6.00 | N#Cc1c(-c2cccc(NC(=O)CCN3CCCCC3)c2)cc(-c2ccccc2O)nc1N [Example 2-1, N-{3-[2-amino-3-cyano-6-(2-hydroxyphenyl)-4-pyridinyl]phenyl}-3-(1-piperidinyl)propanamide hydrochloride]
5.70 to 6.30 | < 5.00 | N#Cc1c(-c2cccc(NC(=O)C(O)CCC(=O)O)c2)cc(-c2ncccc2O)nc1N (stereo not shown) [Example 1-22]
5.00 to 5.70 | 5.00 to 6.00 | N#Cc1c(-c2cccc(NC(=O)CN3CCN(C(=O)c4ccco4)CC3)c2)cc(-c2ccccc2O)nc1N [Example 4-03]
> 6.30 | 5.00 to 6.00 | COCCNCC(=O)Nc1cc(-c2cc(-c3ccccc3O)nc(N)c2C#N)ccc1N1CCC(NC(=O)C(F)(F)F)C1 (stereo not shown) [Example 4-37]
5.70 to 6.30 | 5.00 to 6.00 | N#Cc1c(-c2cc(NC(=O)CCN3CCCCC3)ccc2Cl)cc(-c2ccccc2O)nc1N [Example 2-10]
5.00 to 5.70 | < 5.00 | N#Cc1c(-c2cccc(NC(=O)C(O)CCC(=O)O)c2)cc(-c2cc(Cl)ccc2O)nc1N (stereo not shown) [Example 1-17]
5.70 to 6.30 | – | CCNc1ccc(-c2cc(-c3c(O)cccc3OCC3CC3)nc(N)c2CO)cc1O [Example 8-1, 2-[6-amino-4-[4-(ethylamino)-3-hydroxyphenyl]-5-(hydroxymethyl)-2-pyridinyl]-3-(cycloproylmethoxy)phenol hydrochloride]
> 6.30 | – | CC(=O)Nc1ccc(-c2cc(-c3c(O)cccc3OCC3CC3)nc(N)c2CO)cc1O [Example 8-3, N-{4-[2-amino-6-[2-(cyclopropylmethoxy)-6-hydroxyphenyl]-3-(hydroxymethyl)-4-pyridinyl]-2-hydroxyphenyl}acetamide hydrochloride]
5.00 to 5.70 | – | Nc1cc(-c2cccc(NC(=O)CNCC3CC3)c2)cc(-c2ccccc2O)n1 [Example 4-39]
5.00 to 5.70 | – | CCn1c(=O)oc2cc(-c3cc(-c4c(O)cccc4OCC4CC4)nc4c3COC(=O)N4)ccc21 [Example 8-2, 7-[2-(cyclopropylmethoxy)-6-hydroxyphenyl-5-(3-ethyl-2-oxo-2,3-dihydro-1,3-benzoxazol-6-yl)-1,4-dihydro-2H-pyrido[2,3-d][1,3]oxazin-2-one hydrochloride]
